# Results published in patent US20240293361A1, “Use of Statins to Treat or Prevent Drug-Induced Hearing Loss” (The United States of America, as represented by the …, priority 2020, published 2024).
# Where “and” joins values, the source holds several entries; their conditions need not be identical. Equal values may be shown once. Entries after “also recorded” stand apart in the source; their conditions may differ.
# Experiments:
# [1] = Schachter et al., 2005; cited from earlier work
# [2] = system: low-density lipoprotein cholesterol; settings: clinical studies, comparison among statins; cited from earlier work
# [3] = system: cisplatin-induced hearing loss in patients with head and neck cancer; assay: Clinical hearing status (PTA of 1, 2 and 4 kHz) at follow-up after cisplatin therapy; format: in vivo, human
# [4] = cited from earlier work; for hepatoselectivity: compared with lipophilic agents
# [5] = system: cytochrome P(450) enzymes; settings: Schachter et al., 2005; cited from earlier work
# [6] = system: patients treated with atorvastatin; settings: cited from earlier work
# [7] = system: cisplatin-induced hearing loss in mice; settings: cyclic administration of cisplatin; ABR testing; cited from earlier work
# [8] = system: spiral ganglion neurons (SGN); settings: mouse model of noise-induced hearing loss; cited from earlier work
# [9] = system: heme oxygenase-1 (Hmox-1); settings: mice; cited from earlier work
# [10] = system: cisplatin-induced hearing loss in patients with head and neck cancer
# Text: (§1) The primary outcome measure was the difference in incidence of a change in hearing between the baseline hearing test and the post-treatment hearing test, per ear, as defined by established ototoxicity grading scales. These scales report subjects who transition from normal hearing to hearing loss as well as those who transition from some hearing loss to more hearing loss. The criteria of two different grading scales was applied to the dataset (Table 4). The NCI CTCAEv5.0(34) classifies adverse changes in hearing based on auditory threshold shifts across a 1-8 KHz frequency range. TUNE ototoxicity grading criteria (Theunissen et al., 2014), which incorporate extended high frequency (EHF) data was also applied (see Table 5, FIG. 5).
# Changes in hearing were primarily defined using CTCAEv5.0 criteria (Theunissen et al., 2014). However, cisplatin-induced ototoxicity is characterized initially as a high frequency (above 8 kHz) hearing loss that can spread to include lower frequencies (Brock et al., 1991). Therefore, the TUNE grading scale (Theunissen et al., 2014) was applied, which reports incidence and severity of hearing loss based on shifts in auditory thresholds across two frequency ranges: 1-4 kHz and 8-12.5 kHz (Table 4). The higher-frequency range of the TUNE scale was modified to include 6, 8 and 12.5 kHz due to insufficient data at 10 kHz in the dataset. Because many of the subjects had some hearing loss at baseline, the TUNE criteria was further modified so that Grades 3 and 4 utilized threshold shift data instead of absolute thresholds. A TUNE Grade 3 was redefined for this study as a ≥35 dB PTA threshold shift from the baseline to the post-treatment audiogram, and similarly Grade 4 was redefined as a ≥50 dB PTA threshold shift.
# (§2) Changes in hearing, defined by TUNE criteria, were analyzed using categorical incidence (per ear) data. The incidence and severity distribution of a clinically meaningful hearing change, per ear, relative to statin use was analyzed using chi-square analyses (SAS PROC FREQ procedure). […] A logistic regression analysis (SAS PROC LOGISTIC procedure) with calculation of odds ratios and 95% confidence intervals was performed to identify associations between TUNE-defined changes in hearing and statin use after adjustment for significant covariates.
# [11] = system: cisplatin-induced hearing loss in patients with head and neck cancer; settings: in vivo
# [12] = system: cisplatin-induced hearing loss in patients with head and neck cancer; remark: listed apart in the source
# Text: as §1
# as §2, with “The primary outcome measure was based on changes” for “Changes”, “hearing as” for “hearing,”, “CTCAEv5.0 scale criteria (see Table 4) and” for “TUNE criteria,”, “CTCAE-defined” for “TUNE-defined”
# patients with HNSCC = assay: 3-year overall and disease-free survival (Kaplan-Meier, log-rank); format: in vivo, human; settings: URMC data n=175; log-rank (Mantel-Cox)
# Description: Overall survival and disease-free survival were calculated as Kaplan-Meier curves using Prism v8 software on all available data from URMC at up to 3 years post treatment (N=175). Survival curves were compared using the log-rank (Mantel-Cox) test. Cochlear radiation dose data presented in FIG. 6 were analyzed using Pearson R and Spearman R correlation analysis within Prism v8.
# Overall survival at 3 years was approximately 80% (FIG. 4). An exact median survival time could not be calculated due to the number of patients censored/lost to follow-up.
# [13] = package insert, rate greater than placebo
# [14] = controlled for cumulative cisplatin dose and baseline hearing
structure (smiles),measurement,setting,value
CC(C)c1nc(N(C)S(C)(=O)=O)nc(-c2ccc(F)cc2)c1/C=C/[C@@H](O)C[C@@H](O)CC(=O)O [rosuvastatin],lipophilicity,[1],relatively hydrophilic
same,effectiveness for reducing low-density lipoprotein cholesterol,[2],most effective
same,"hearing status at follow-up: Mild (PTA >20, <40), number of ears",[3]; post-cisplatin therapy,14 No. Ears
same,"hearing status at follow-up: Mild (PTA >20, <40), percent of ears",[3]; post-cisplatin therapy,(63.64) %
same,"hearing status at follow-up: Moderate (PTA ≥40, ≤70), number of ears",[3]; post-cisplatin therapy,6 No. Ears
same,"hearing status at follow-up: Moderate (PTA ≥40, ≤70), percent of ears",[3]; post-cisplatin therapy,(27.27) %
same,"hearing status at follow-up: Normal (PTA ≤20), number of ears",[3]; post-cisplatin therapy,2 No. Ears
same,"hearing status at follow-up: Normal (PTA ≤20), percent of ears",[3]; post-cisplatin therapy,(9.09) %
same,"hearing status at follow-up: Profound (PTA ≥95), number of ears",[3]; post-cisplatin therapy,0 No. Ears
same,"hearing status at follow-up: Severe (PTA >70, <95), number of ears",[3]; post-cisplatin therapy,0 No. Ears
same,hepatoselectivity,"[4]; Schachter et al., 2005",greater hepatoselectivity
same,metabolism by the cytochrome P(450) system,[5],not significantly metabolized
O=C(O)C[C@H](O)C[C@H](O)/C=C/c1c(C2CC2)nc2ccccc2c1-c1ccc(F)cc1 [pitavastatin],lipophilicity,[1],relatively lipophilic
same,"change of hearing status over cisplatin therapy, in words",[3]; n=2 subjects,started and ended therapy with a bilateral mild hearing loss
same,"hearing status at follow-up: Mild (PTA >20, <40), number of ears",[3]; post-cisplatin therapy,4 No. Ears
same,"hearing status at follow-up: Mild (PTA >20, <40), percent of ears",[3]; post-cisplatin therapy,(100.00) %
same,"hearing status at follow-up: Moderate (PTA ≥40, ≤70), number of ears",[3]; post-cisplatin therapy,0 No. Ears
same,"hearing status at follow-up: Normal (PTA ≤20), number of ears",[3]; post-cisplatin therapy,0 No. Ears
same,"hearing status at follow-up: Profound (PTA ≥95), number of ears",[3]; post-cisplatin therapy,0 No. Ears
same,"hearing status at follow-up: Severe (PTA >70, <95), number of ears",[3]; post-cisplatin therapy,0 No. Ears
same,metabolism by the cytochrome P(450) system,[5],limited metabolism
CC[C@H](C)C(=O)O[C@H]1C[C@H](O)C=C2C=C[C@H](C)[C@H](CC[C@@H](O)C[C@@H](O)CC(=O)O)[C@H]21 [pravastatin],lipophilicity,[1],relatively hydrophilic
same,"hearing status at follow-up: Mild (PTA >20, <40), number of ears",[3]; post-cisplatin therapy,8 No. Ears
same,"hearing status at follow-up: Mild (PTA >20, <40), percent of ears",[3]; post-cisplatin therapy,(33.33) %
same,"hearing status at follow-up: Moderate (PTA ≥40, ≤70), number of ears",[3]; post-cisplatin therapy,6 No. Ears
same,"hearing status at follow-up: Moderate (PTA ≥40, ≤70), percent of ears",[3]; post-cisplatin therapy,(25.00) %
same,"hearing status at follow-up: Normal (PTA ≤20), number of ears",[3]; post-cisplatin therapy,9 No. Ears
same,"hearing status at follow-up: Normal (PTA ≤20), percent of ears",[3]; post-cisplatin therapy,(37.50) %
same,"hearing status at follow-up: Profound (PTA ≥95), number of ears",[3]; post-cisplatin therapy,0 No. Ears
same,"hearing status at follow-up: Severe (PTA >70, <95), number of ears",[3]; post-cisplatin therapy,1 No. Ears
same,"hearing status at follow-up: Severe (PTA >70, <95), percent of ears",[3]; post-cisplatin therapy,(4.17) %
same,hepatoselectivity,"[4]; Schachter et al., 2005",greater hepatoselectivity
same,metabolism by the cytochrome P(450) system,[5],not significantly metabolized
CC(C)n1c(/C=C/C(O)CC(O)CC(=O)O)c(-c2ccc(F)cc2)c2ccccc21 (stereo not drawn) [fluvastatin],lipophilicity,[1],relatively lipophilic
same,elimination half-life,"[4]; Schachter et al., 2005",1 h
CC(C)c1c(C(=O)Nc2ccccc2)c(-c2ccccc2)c(-c2ccc(F)cc2)n1CC[C@@H](O)C[C@@H](O)CC(=O)[O-].CC(C)c1c(C(=O)Nc2ccccc2)c(-c2ccccc2)c(-c2ccc(F)cc2)n1CC[C@@H](O)C[C@@H](O)CC(=O)[O-].[Ca+2] [atorvastatin calcium],"incidence of persistent serum transaminase elevations, 10 mg","[6]; human, in vivo",0.2%
same,"incidence of persistent serum transaminase elevations, 20 mg","[6]; human, in vivo",0.2%
same,"incidence of persistent serum transaminase elevations, 40 mg","[6]; human, in vivo",0.6%
same,"incidence of persistent serum transaminase elevations, 80 mg","[6]; human, in vivo",2.3%
same,patients with persistent elevations (>3 times ULN on 2 or more occasions) in serum transaminases,"[6]; human, in vivo",0.7%
CC[C@H](C)C(=O)O[C@H]1C[C@@H](C)C=C2C=C[C@H](C)[C@H](CC[C@@H]3C[C@@H](O)CC(=O)O3)[C@H]21 [lovastatin],effect on cisplatin-induced hearing loss / ototoxicity in mice,[7],reduces cisplatin-induced hearing loss; also recorded: reduced cisplatin ototoxicity
same,lipophilicity,[1],relatively lipophilic
same,"hearing status at follow-up: Mild (PTA >20, <40), number of ears",[3]; post-cisplatin therapy,4 No. Ears
same,"hearing status at follow-up: Mild (PTA >20, <40), percent of ears",[3]; post-cisplatin therapy,(100.00) %
same,"hearing status at follow-up: Moderate (PTA ≥40, ≤70), number of ears",[3]; post-cisplatin therapy,0 No. Ears
same,"hearing status at follow-up: Normal (PTA ≤20), number of ears",[3]; post-cisplatin therapy,0 No. Ears
same,"hearing status at follow-up: Profound (PTA ≥95), number of ears",[3]; post-cisplatin therapy,0 No. Ears
same,"hearing status at follow-up: Severe (PTA >70, <95), number of ears",[3]; post-cisplatin therapy,0 No. Ears
same,elongation of SGN processes,[8],promoted the elongation of SGN processes
same,Hmox-1 mRNA,[9],induced Hmox-1 mRNA
CCC(C)(C)C(=O)O[C@H]1C[C@@H](C)C=C2C=C[C@H](C)[C@H](CC[C@@H]3C[C@@H](O)CC(=O)O3)[C@H]21 [simvastatin],half-life,"[4]; Sirtori et al., 2014",12 h
N.N.[Cl][Pt][Cl] [cisplatin],"individuals with clinically meaningful hearing loss after cisplatin therapy, TUNE criteria",[10]; in vivo,up to 53%
same,high-frequency threshold shift after cisplatin therapy,[11],13.7 dB
CC(C)c1c(C(=O)Nc2ccccc2)c(-c2ccccc2)c(-c2ccc(F)cc2)n1CC[C@@H](O)C[C@@H](O)CC(=O)O [atorvastatin],safety and tolerability of the 20 mg dose,"[6]; 20 mg once daily, adults, literature, listed as Atorvastatin",very low incidence of adverse effects
same,Food and Drug Administration pregnancy classification,"[6]; human, in vivo",Category X
same,alanine aminotransferase increase leading to treatment discontinuation,[6]; [13],0.4%
same,diarrhea leading to treatment discontinuation,[6]; [13],0.5%
same,hepatic enzyme increase leading to treatment discontinuation,[6]; [13],0.4%
same,myalgia leading to treatment discontinuation,[6]; [13],0.7%
same,nausea leading to treatment discontinuation,[6]; [13],0.4%
same,"hearing loss, CTCAEv5.0 Grade ≥2 criteria, retrospective data used for power analysis",[12]; atorvastatin (20 mg) group as worded,~16.7%
same,less likely to acquire a CTCAE-defined cisplatin-induced hearing loss than a non-statin user,[12]; [14],53%
same,"less likely to develop a cisplatin-related hearing loss, once daily atorvastatin vs not on atorvastatin",[12]; observational data,45%
same,"OR for cisplatin-related hearing loss, once daily atorvastatin vs not on atorvastatin","[12]; observational data, 95% CI: 0.327-0.942",0.55
same,"incidence of a CTCAEv5.0-grade hearing loss, patients","[12]; per patient, in at least one ear",46%
same,incidence of CTCAE grade ≥2 hearing change,[12]; percentage of ears,9.7%
same,incidence of CTCAE Grade 1 or higher hearing loss,"[12]; percentage of ears, full cohort",31.2% and 31%
same,"incidence of CTCAE-defined hearing loss, chemoradiation therapy","[12]; subgroup, % of ears",31.2%
same,"incidence of CTCAE-defined hearing loss, higher cumulative cisplatin doses (>200 mg/m^2)","[12]; subgroup, % of ears",31.7%
same,"incidence of CTCAE-defined hearing loss, males","[12]; subgroup, % of ears",30.4%
same,"incidence of CTCAE-defined hearing loss, mild hearing loss at baseline","[12]; subgroup, % of ears",26.8%
same,less likely to acquire a TUNE-defined cisplatin-induced hearing loss than a non-statin user,[10]; [14],56%
same,incidence of TUNE grade 2 or higher change in hearing,[10]; in vivo,14.4%
same,incidence of TUNE Grade 1 or higher hearing loss,[10]; percent of ears,34%
same,"hearing status at follow-up: Mild (PTA >20, <40), number of ears",[3]; post-cisplatin therapy,49 No. Ears
same,"hearing status at follow-up: Mild (PTA >20, <40), percent of ears",[3]; post-cisplatin therapy,(50.52) %
same,"hearing status at follow-up: Moderate (PTA ≥40, ≤70), number of ears",[3]; post-cisplatin therapy,21 No. Ears
same,"hearing status at follow-up: Moderate (PTA ≥40, ≤70), percent of ears",[3]; post-cisplatin therapy,(21.65) %
same,"hearing status at follow-up: Normal (PTA ≤20), number of ears",[3]; post-cisplatin therapy,26 No. Ears
same,"hearing status at follow-up: Normal (PTA ≤20), percent of ears",[3]; post-cisplatin therapy,(26.80) %
same,"hearing status at follow-up: Profound (PTA ≥95), number of ears",[3]; post-cisplatin therapy,3 No. Ears
same,"hearing status at follow-up: Profound (PTA ≥95), percent of ears",[3]; post-cisplatin therapy,(3.00) %
same,"hearing status at follow-up: Severe (PTA >70, <95), number of ears",[3]; post-cisplatin therapy,1 No. Ears
same,"hearing status at follow-up: Severe (PTA >70, <95), percent of ears",[3]; post-cisplatin therapy,(1.03) %
same,elongation of SGN processes,[8],promoted the elongation of SGN processes
same,3-year disease-free survival compared with non-statin users,patients with HNSCC,no significant differences
same,3-year overall survival compared with non-statin users,patients with HNSCC,did not have a significant effect on patient survival; also recorded: no significant differences
